# Laboratory results taken from patent publication US20210244735A1, “COMPOSITIONS AND METHODS FOR TREATING MYELOFIBROSIS” (Impact Biomedicines, Inc., priority 2010, published 2021).
# Where a name gives a salt, the structure may show the parent alone. Read-outs that look alike come from different tables or passages of the source.
# System: subjects with MF
# Details: for discontinuation: adverse event: number of subjects
# [1] = at least possibly related, All Subjects (n=59)
# [2] = at least possibly related, All Subjects, not transfusion dependent at study entry (n=37)
# [3] = at least possibly related, MTD Cohort (n=40)
# [4] = at least possibly related, MTD Cohort, not transfusion dependent at study entry (n=24)
# [5] = at least possibly related, MTD cohort
# [6] = at least possibly related, overall
# [7] = number of patients who started at ≥680 mg
structure (smiles),measurement,setting,value
"Cc1cnc(Nc2ccc(OCCN3CCCC3)cc2)nc1Nc1cccc(S(=O)(=O)NC(C)(C)C)c1 [TG101348, N-tert-butyl-3-[(5-methyl-2-{[4-(2-pyrrolidin-1-ylethoxy)phenyl]amino}pyrimidin-4-yl)amino]benzenesulfonamide dihydrochloride monohydrate]",patients who discontinued treatment due to toxicity,"59 patients, median follow-up 12 weeks",7
same,subjects with serious adverse events considered at least possibly related,MF-TG101348-001 and -002,8 subjects
same,Grades 3/4 asymptomatic increase in ALT,MTD cohort,8%
same,Grades 3/4 asymptomatic increase in AST,MTD cohort,3%
same,Grades 3/4 asymptomatic increase in alkaline phosphatase,MTD cohort,0%
same,Grades 3/4 asymptomatic increase in creatinine,MTD cohort,0%
same,Grades 3/4 asymptomatic increase in serum lipase,MTD cohort,15%
same,subjects who required dose-reduction during the first 6 cycles,MTD cohort (n=40),70%
same,Anemia: New Transfusion Requirement on Study,"MTD subjects not transfusion dependent at baseline (N=24), transfusion on at least 2 occasions for Hb <10 g/dL",16 (67%) subjects (%)
same,maximum tolerated dose (MTD),"Phase I, myelofibrosis",680 mg
same,Grade 3/4 neutropenia,"all patients, Example 1 data",14 % of patients
same,Grade 3/4 thrombocytopenia,"all patients, Example 1 data",25 % of patients
same,Grade 3/4 neutropenia considered related,all subjects,10%
same,Grade 3/4 thrombocytopenia considered related,all subjects,24%
same,"Abdominal pain, Severity Grade 1-",[1],6 (10.2%) subjects (%)
same,"Abdominal pain, Severity Grade 3-4",[1],0 subjects (%)
same,"Alanine aminotransferase increased, Severity Grade 1-",[1],11 subjects (%)
same,"Alanine aminotransferase increased, Severity Grade 3-4",[1],4 (6.8%) subjects (%)
same,"Anorexia, Severity Grade 1-",[1],8 (13.6%) subjects (%)
same,"Anorexia, Severity Grade 3-4",[1],0 subjects (%)
same,"Aspartate aminotransferase increased, Severity Grade 1-",[1],15 subjects (%)
same,"Aspartate aminotransferase increased, Severity Grade 3-4",[1],1 (1.7%) subjects (%)
same,"Blood alkaline phosphatase increased, Severity Grade 1-",[1],10 subjects (%)
same,"Blood alkaline phosphatase increased, Severity Grade 3-4",[1],0 subjects (%)
same,"Blood creatinine increased, Severity Grade 1-",[1],14 subjects (%)
same,"Blood creatinine increased, Severity Grade 3-4",[1],0 subjects (%)
same,"Diarrhea, Severity Grade 1-",[1],32 subjects (%)
same,"Diarrhea, Severity Grade 3-4",[1],6 (10.2%) subjects (%)
same,"Dry skin, Severity Grade 1-",[1],6 (10.2%) subjects (%)
same,"Dry skin, Severity Grade 3-4",[1],0 subjects (%)
same,"Edema peripheral, Severity Grade 1-",[1],6 (10.2%) subjects (%)
same,"Edema peripheral, Severity Grade 3-4",[1],0 subjects (%)
same,"Hyperlipasemia, Severity Grade 1-",[1],10 subjects (%)
same,"Hyperlipasemia, Severity Grade 3-4",[1],6 (10.2%) subjects (%)
same,"Hypocalcemia, Severity Grade 1-",[1],7 (11.9%) subjects (%)
same,"Hypocalcemia, Severity Grade 3-4",[1],1 (1.7%) subjects (%)
same,"Nausea, Severity Grade 1-",[1],39 subjects (%)
same,"Nausea, Severity Grade 3-4",[1],2 (3.4%) subjects (%)
same,"Neutropenia, Severity Grade 1-2",[1],2 (3.4%) subjects (%)
same,"Neutropenia, Severity Grade 3-4",[1],6 (10.2%) subjects (%)
same,"Skin exfoliation, Severity Grade 1-",[1],8 (13.6%) subjects (%)
same,"Skin exfoliation, Severity Grade 3-4",[1],0 subjects (%)
same,"Thrombocytopenia, Severity Grade 1-2",[1],10 (17.0%) subjects (%)
same,"Thrombocytopenia, Severity Grade 3-4",[1],14 (23.7%) subjects (%)
same,"Vomiting, Severity Grade 1-",[1],32 subjects (%)
same,"Vomiting, Severity Grade 3-4",[1],2 (3.4%) subjects (%)
same,"Anemia, Severity Grade 1-2",[2],3 (8.1%) subjects (%)
same,"Anemia, Severity Grade 3-4",[2],13 (35.1%) subjects (%)
same,"Abdominal pain, Severity Grade 1-2",[3],4 (10.0%) subjects (%)
same,"Abdominal pain, Severity Grade 3-",[3],0 subjects (%)
same,"Alanine aminotransferase increased, Severity Grade 1-2",[3],9 (22.5%) subjects (%)
same,"Alanine aminotransferase increased, Severity Grade 3-",[3],3 (7.5%) subjects (%)
same,"Anorexia, Severity Grade 1-2",[3],6 (15.0%) subjects (%)
same,"Anorexia, Severity Grade 3-",[3],0 subjects (%)
same,"Aspartate aminotransferase increased, Severity Grade 1-2",[3],13 subjects (%)
same,"Aspartate aminotransferase increased, Severity Grade 3-",[3],1 (2.5%) subjects (%)
same,"Blood alkaline phosphatase increased, Severity Grade 1-2",[3],9 (22.5%) subjects (%)
same,"Blood alkaline phosphatase increased, Severity Grade 3-",[3],0 subjects (%)
same,"Blood creatinine increased, Severity Grade 1-2",[3],11 subjects (%)
same,"Blood creatinine increased, Severity Grade 3-",[3],0 subjects (%)
same,"Diarrhea, Severity Grade 1-2",[3],25 subjects (%)
same,"Diarrhea, Severity Grade 3-",[3],5 subjects (%)
same,"Dry skin, Severity Grade 1-2",[3],6 (15%) subjects (%)
same,"Dry skin, Severity Grade 3-",[3],0 subjects (%)
same,"Edema peripheral, Severity Grade 1-2",[3],4 (10.0%) subjects (%)
same,"Edema peripheral, Severity Grade 3-",[3],0 subjects (%)
same,"Hyperlipasemia, Severity Grade 1-2",[3],9 (22.5%) subjects (%)
same,"Hyperlipasemia, Severity Grade 3-",[3],6 subjects (%)
same,"Hypocalcemia, Severity Grade 1-2",[3],6 (15.0%) subjects (%)
same,"Hypocalcemia, Severity Grade 3-",[3],1 (2.5%) subjects (%)
same,"Nausea, Severity Grade 1-2",[3],31 subjects (%)
same,"Nausea, Severity Grade 3-",[3],2 (5.0%) subjects (%)
same,"Neutropenia, Severity Grade 1-2",[3],2 (5.0%) subjects (%)
same,"Neutropenia, Severity Grade 3-4",[3],4 (10.0%) subjects (%)
same,"Skin exfoliation, Severity Grade 1-2",[3],8 (20.0%) subjects (%)
same,"Skin exfoliation, Severity Grade 3-",[3],0 subjects (%)
same,"Thrombocytopenia, Severity Grade 1-2",[3],8 (20.0%) subjects (%)
same,"Thrombocytopenia, Severity Grade 3-4",[3],11 (27.5%) subjects (%)
same,"Vomiting, Severity Grade 1-2",[3],27 subjects (%)
same,"Vomiting, Severity Grade 3-",[3],1 (2.5%) subjects (%)
same,"Anemia, Severity Grade 1-2",[4],2 (8.3%) subjects (%)
same,"Anemia, Severity Grade 3-4",[4],13 (54.2%) subjects (%)
same,grade 3 diarrhea,[5],13 % of subjects
same,grade 3 nausea,[5],5 % of subjects
same,grade 3 vomiting,[5],3 % of subjects
same,grade 3 diarrhea,[6],10 % of subjects
same,grade 3 nausea,[6],3 % of subjects
same,grade 3 vomiting,[6],3 % of subjects
same,subjects discontinued because of adverse events,"extension study, 43 subjects, after 24 to 46 weeks on therapy",3
same,subjects discontinued for treatment-related adverse events,"first 6 cycles of therapy, 59 subjects",6
same,diarrhea Gr3,[7],3
same,nausea Gr3,[7],1
same,vomiting Gr3,[7],1
same,discontinuation: adverse event,"MTD (initiated at 680 or 800 mg/day), 40 enrolled",5
same,discontinuation: adverse event,"Overall, 59 enrolled",6
same,Grade 3/4 anemia considered related,of 37 subjects who were not transfusion dependent at baseline,35%
same,maximum tolerated dose (MTD),"oral once daily, dose cohorts 30 to 800 mg per day",680 mg/day
same,Grades 3/4 asymptomatic increase in ALT,overall,7%
same,Grades 3/4 asymptomatic increase in AST,overall,2%
same,Grades 3/4 asymptomatic increase in alkaline phosphatase,overall,0%
